From patent US9505740B2, “Cyclic amine derivative and pharmaceutical use thereof” (Toray Industries, Inc., priority 2013, dated 2016)
Structures can show the parent of a compound that is named as a salt.

Test system: mouse partial sciatic nerve ligation model
Assay: Mouse partial sciatic nerve ligation model (Seltzer model), von Frey test
Assay type: in vivo
Conditions: Day 7, vs physiological saline group
[1] = intravenous administration (tail vein), Examples 2, 4: 0.1 to 10 mg/kg, 13: 0.01 to 1 mg/kg, 18, 22: 0.1 and 1 mg/kg, 25, 27, 29, 31, 33, 66, 68, 70: 0.1 mg/kg, pregabalin 1 or 3 mg/kg
[2] = intraventricular administration, 10 μg/site, 15, 30 and 60 minutes after administration, p<0.05

Compound | analgesic action, total score in the von Frey test [1] | analgesic action, total score in the von Frey test [2]
Cl.O=C(O)Cn1ccnc1CCC(=O)N1CCC(N2CCCCC2)CC1 [Example 25, 2-(2-(3-(4-(piperidin-1-yl)piperidin-1-yl)-3-oxopropyl)-1H-imidazol-1-yl)acetic acid hydrochloride] | statistically significant analgesic action | –
CN1CCN(C2CCN(C(=O)CCc3nccn3CC(=O)O)CC2)CC1.Cl [Example 29, 2-(2-(3-(4-(1-methylpiperazin-4-yl)piperidin-1-yl)-3-oxopropyl)-1H-imidazol-1-yl)acetic acid hydrochloride] | statistically significant analgesic action | –
Cl.O=C(O)Cn1ccnc1CCC(=O)N1CCC(N2CCOCC2)CC1 [Example 27, 2-(2-(3-(4-(morpholin-4-yl)piperidin-1-yl)-3-oxopropyl)-1H-imidazol-1-yl)acetic acid hydrochloride] | statistically significant analgesic action | –
CN(C)[C@H]1CCN(C(=O)CCc2nccn2CCC(=O)O)C1.Cl [Example 70, (S)-3-(2-(3-(3-(dimethylamino)pyrrolidin-1-yl)-3-oxopropyl)-1H-imidazol-1-yl)propanoic acid hydrochloride] | statistically significant analgesic action | –
CN(C)C1CCN(C(=O)CCc2nccn2CCC(=O)O)CC1 [Example 66, 3-(2-(3-(4-(dimethylamino)piperidin-1-yl)-3-oxopropyl)-1H-imidazol-1-yl)propanoic acid hydrochloride] | statistically significant analgesic action | –
CC(=O)N(C)C1CCN(C(=O)CCc2nccn2C)CC1.Cl [Example 4, N-methyl-N-(1-(3-(1-methyl-1H-imidazol-2-yl)propanoyl)piperidin-4-yl)acetamide hydrochloride] | statistically significant analgesic action | statistically significant analgesic action
CC(=O)NC1CCN(C(=O)CCc2nccn2C)CC1.Cl [Example 10, N-(1-(3-(1-methyl-1H-imidazol-2-yl)propanoyl)piperidin-4-yl)acetamide hydrochloride] | – | statistically significant analgesic action
CCN(C)C1CCN(C(=O)CCc2nccn2CC(=O)O)CC1.Cl [Example 18, 2-(2-(3-(4-(ethylmethylamino)piperidin-1-yl)-3-oxopropyl)-1H-imidazol-1-yl)acetic acid hydrochloride] | statistically significant analgesic action | –
CN(C)[C@H]1CCN(C(=O)CCc2nccn2CC(=O)O)C1.Cl [Example 33, (S)-2-(2-(3-(3-(dimethylamino)pyrrolidin-1-yl)-3-oxopropyl)-1H-imidazol-1-yl)acetic acid hydrochloride] | statistically significant analgesic action | –
CCN(CC)C1CCN(C(=O)CCc2nccn2CC(=O)O)CC1.Cl [Example 22, 2-(2-(3-(4-(diethylamino)piperidin-1-yl)-3-oxopropyl)-1H-imidazol-1-yl)acetic acid hydrochloride] | statistically significant analgesic action | –
CN(C)[C@@H]1CCCN(C(=O)CCc2nccn2CC(=O)O)C1.Cl [Example 31, 2-(2-(3-((R)-3-dimethylaminopiperidin-1-yl)-3-oxopropyl)-1H-imidazol-1-yl)acetic acid hydrochloride] | statistically significant analgesic action | –
CNC1CCN(C(=O)CCc2nccn2C)CC1 [Example 2, 3-(1-methyl-1H-imidazol-2-yl)-1-(4-(methylamino)piperidin-1-yl)propan-1-one hydrochloride] | statistically significant analgesic action | statistically significant analgesic action
CN(C)C1CCN(C(=O)CCc2nccn2CCO)CC1 [Example 12, 1-(4-(dimethylamino)piperidin-1-yl)-3-(1-(2-hydroxyethyl)-1H-imidazol-2-yl)propan-1-one hydrochloride] | – | statistically significant analgesic action
CN(C)[C@H]1CCCN(C(=O)CCc2nccn2CCC(=O)O)C1.Cl [Example 68, 3-(2-(3-((S)-3-dimethylaminopiperidin-1-yl)-3-oxopropyl)-1H-imidazol-1-yl)propanoic acid hydrochloride] | statistically significant analgesic action | –
CC(=O)NCCN(C)C1CCN(C(=O)CCc2nccn2C)CC1 [Example 6, N-(2-(methyl(1-(3-(1-methyl-1H-imidazol-2-yl)propanoyl)piperidin-4-yl)amino)ethyl)acetamide hydrochloride] | – | statistically significant analgesic action
CN(C)C1CCN(C(=O)CCc2nccn2CCN)CC1 [Example 15, 3-(1-(2-aminoethyl)-1H-imidazol-2-yl)-1-(4-(dimethylamino)piperidin-1-yl)propan-1-one hydrochloride] | – | statistically significant analgesic action
